# Legend:
# Type in all cases: in vivo
# [1] = tested on: cucumber target leaf spot fungus (Corynespora cassiicola); assay: Test Example 10: cucumber target leaf spot control, foliar spray; settings: 200 ppm spray on cucumber (SAGAMI HANJIRO)
# [2] = tested on: cucumber anthracnose fungus (Colletotrichum lagenarium); assay: Test Example 9 and Comparative Test Example: cucumber anthracnose control, foliar spray; settings: 200 ppm spray on cucumber (SAGAMI HANJIRO); inoculated one day after spraying
# [3] = tested on: wheat rust fungus (Puccinia recondita); assay: Test Example 2: wheat rust control, foliar spray; settings: 500 ppm spray on wheat (SHIROGANE)
structure (smiles),measurement,setting,value
CNC(=O)Oc1cccc(C)c1COc1ccc(-c2nn(C)c(Cl)c2C)cc1C [present compound 7],area of lesion on the treated plant relative to that on an untreated plant,[1],≤ 30%
"COC(=O)Oc1ccccc1COc1ccc(C)cc1C [2-[(2,4-dimethylphenoxy)methyl]phenyl=methyl=carbonate]",area of lesion on the treated plant relative to that on an untreated plant,[2],≥ 70%
CNC(=O)Oc1c(C)cccc1COc1ccc(-c2nn(C)c(Cl)c2C)cc1C [present compound 6],area of lesion on the treated plant relative to that on an untreated plant,[3],≤ 30%

# Reference: patent publication US9573904B2, “Aromatic compound and use thereof” (Sumitomo Chemical Company, Limited, priority 2013, dated 2017)
